Data reported in patent US10076519B2 (CYTOKINETICS, INC., priority 2010, dated 2018).

Each compound was assayed on rabbit skeletal myofibrils (fast skeletal myofibrils) (assay: Activation of fast skeletal myofibrils (PUMA assay, PK/LDH-coupled ATPase at pCa25)). Conditions: AC1.4 determined according to the procedure of Example 39; reported as class symbols.
Format: biochemical
Summary of the method: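 Detergent-washed rabbit psoas myofibrils (~90% fast fibres, calcium-regulated) assayed at calcium giving 25% of maximal ATPase rate (pCa25). ADP turnover coupled via pyruvate kinase/lactate dehydrogenase to NADH oxidation, read at 340 nm. Buffer 12 mM PIPES, 2 mM MgCl2, 1 mM DTT, pH 6.8; AC1.4 values derived.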

Mean AC1.4	Compound
A (A=<1 uM)	CC(C)(CNc1ccc(-c2cccc(N)c2)nn1)c1ccc(F)cc1 [[6-(3-aminophenyl)pyridazin-3-yl][2-(4-fluorophenyl)-2-methylpropyl]amine]
B (B=1-10 uM)	CC(C)(CNc1ccc(-c2ccc(Cl)cc2)nn1)c1ccc(F)cc1 [[6-(4-chlorophenyl)pyridazin-3-yl][2-(4-fluorophenyl)-2-methylpropyl]amine]
A (A=<1 uM)	Nc1ccc(-c2ccc(NCC3(c4ncccc4F)CCC3)nn2)nc1 [[6-(5-amino(2-pyridyl))pyridazin-3-yl]{[(3-fluoro(2-pyridyl))cyclobutyl]methyl}amine]

Further lines, the compound ahead of its results:

Compound	Mean AC1.4
CC(C)(CNc1ccc(-c2cccc3c(N)n[nH]c23)nn1)c1ccc(F)cc1 [[6-(3-amino(1H-indazol-7-yl))pyridazin-3-yl][2-(4-fluorophenyl)-2-methylpropyl]amine]	B (B=1-10 uM)
Cn1nc(N)c2cc(-c3ccc(NCC(C)(C)c4ccc(F)cc4)nn3)ccc21 [[6-(3-amino-1-methyl(1H-indazol-5-yl))pyridazin-3-yl][2-(4-fluorophenyl)-2-methylpropyl]amine]	B (B=1-10 uM)
CC(C)(CNc1ccc(-c2ccc3onc(N)c3c2)nn1)c1ccc(F)cc1 [[6-(3-aminobenzo[3,4-d]isoxazol-5-yl)pyridazin-3-yl][2-(4-fluorophenyl)-2-methylpropyl]amine]	B (B=1-10 uM)
CC(C)(CNc1ccc(-c2ccc3c(N)noc3c2)nn1)c1ccc(F)cc1 [[6-(3-aminobenzo[d]isoxazol-6-yl)pyridazin-3-yl][2-(4-fluorophenyl)-2-methylpropyl]amine]	A (A=<1 uM)
Nc1cccc(-c2ccc(NCC3(c4ncccc4F)CCC3)nn2)c1 [[6-(3-aminophenyl)pyridazin-3-yl]{[(3-fluoro(2-pyridyl))cyclobutyl]methyl}amine]	A (A=<1 uM)
CC(C)(CNc1ccc(-c2cccc(Cl)c2)nn1)c1ccc(F)cc1 [[6-(3-chlorophenyl)pyridazin-3-yl][2-(4-fluorophenyl)-2-methylpropyl]amine]	A (A=<1 uM)
CCc1n[nH]c2ccc(-c3ccc(NCC(C)(C)c4ccc(F)cc4)nn3)cc12 [[6-(3-ethyl(1H-indazol-5-yl))pyridazin-3-yl][2-(4-fluorophenyl)-2-methylpropyl]amine]	B (B=1-10 uM)
Nc1ccc(-c2ccc(NCC3(c4ncccc4F)CCC3)nn2)cc1F [[6-(4-amino-3-fluorophenyl)pyridazin-3-yl]{[(3-fluoro(2-pyridyl))cyclobutyl]meth-yl}amine]	A (A=<1 uM)
CC(C)(CNc1ccc(-c2ccc(N)cc2)nn1)c1ccc(F)cc1 [[6-(4-aminophenyl)pyridazin-3-yl][2-(4-fluorophenyl)-2-methylpropyl]amine]	A (A=<1 uM)
Nc1ccc(-c2ccc(NCC3(c4ncccc4F)CCC3)nn2)cc1 [[6-(4-aminophenyl)pyridazin-3-yl]{[(3-fluoro(2-pyridyl))cyclobutyl]methyl}amine]	A (A=<1 uM)
CC(C)(CNc1ccc(-c2cc(N)[nH]n2)nn1)c1ccc(F)cc1 [[6-(5-aminopyrazol-3-yl)pyridazin-3-yl][2-(4-fluorophenyl)-2-methylpropyl]amine]	B (B=1-10 uM)
CC(C)(CNc1ccc(-c2cccc(N)n2)nn1)c1ccc(F)cc1 [[6-(6-amino(2-pyridyl))pyridazin-3-yl][2-(4-fluorophenyl)-2-methylpropyl]amine]	B (B=1-10 uM)
CC(C)(CNc1ccc(-c2ccc(N)nc2)nn1)c1ccc(F)cc1 [[6-(6-amino(3-pyridyl))pyridazin-3-yl][2-(4-fluorophenyl)-2-methylpropyl]amine]	A (A=<1 uM)
Nc1ccc(-c2ccc(NCC3(c4ncccc4F)CCC3)nn2)cn1 [[6-(6-amino(3-pyridyl))pyridazin-3-yl]{[(3-fluoro(2-pyridyl))cyclobutyl]methyl}amine]	A (A=<1 uM)

Same assay, conditions: median AC1.4 class, procedure of Example 39

Mean AC1.4	Compound
C (C=10-20 uM)	Fc1cccnc1C1(CNc2ccc(-c3ncccc3Cl)nn2)CCC1 [[6-(3-chloro(2-pyridyl))pyridazin-3-yl]{[(3-fluoro(2-pyridyl))cyclobutyl]methyl}amine]
B (B=1-10 uM)	Fc1ccc(C2(Nc3ccc(-c4ccncc4F)nn3)CCC2)cc1 [[6-(3-fluoro(4-pyridyl))pyridazin-3-yl][(4-fluorophenyl)cyclobutyl]amine]
B (B=1-10 uM)	Nc1ccc2nc(-c3ccc(NCC4(c5ncccc5F)CCC4)nn3)sc2n1 [[6-(5-amino(1,3-thiazolino[5,4-b]pyridin-2-yl))pyridazin-3-yl]{[(3-fluoro(2-pyridyl))cyclobutyl]methyl}amine]
B (B=1-10 uM)	Fc1cc2[nH]ncc2cc1-c1ccc(NC2(c3ncccc3F)CCC2)nn1 [[6-(6-fluoro(1H-indazol-5-yl))pyridazin-3-yl][(3-fluoro(2-pyridyl))cyclobutyl]amine]

The next lines start with the compound.

Compound	Mean AC1.4
Fc1cccnc1C1(CNc2ccc(-c3ncc(-c4nn[nH]n4)s3)nn2)CCC1 [[6-(5-(2H-1,2,3,4-tetraazol-5-yl)(1,3-thiazol-2-yl))pyridazin-3-yl]{[(3-fluoro(2-pyridyl))cyclobutyl]methyl}amine]	B (B=1-10 uM)
Fc1cccnc1C1(CNc2ccc(-c3nc4ccc(Cl)nc4s3)nn2)CCC1 [[6-(5-chloro(1,3-thiazolino[5,4-b]pyridin-2-yl))pyridazin-3-yl]{[(3-fluoro(2-pyridyl))cyclobutyl]methyl}amine]	C (C=10-20 uM)
Nc1ncc(-c2ccc(NCC3(c4ncccc4F)CCC3)nn2)cc1F [[6-(6-amino-5-fluoro(3-pyridyl))pyridazin-3-yl]{[(3-fluoro(2-pyridyl))cyclobutyl]methyl}amine]	A (A=<1 uM)

Same assay, conditions: median AC1.4 reported as class; procedure of Example 39

Mean AC1.4	Compound
B (B=1-10 uM)	Cc1cc(-c2ccc(NC[C@]3(c4ncccc4F)C[C@H](F)C3)nn2)cnc1N [[6-(6-amino-5-methyl(3-pyridyl))pyridazin-3-yl]{[3-fluoro-1-(3-fluoro(2-pyridyl))cyclobutyl]methyl}amine]
C (C=10-20 uM)	Cn1ccc(NC(=O)c2ccc(NCC3(c4ncccc4F)CCC3)nn2)n1 [[6-({[(3-fluoro(2-pyridyl))cyclobutyl]methyl}ami-no)pyridazin-3-yl]-N-(1-methylpyrazol-3-yl)carboxamide]
D (D=>20 uM)	O=C(NCc1ccccn1)c1ccc(NCC2(c3ncccc3F)CCC2)nn1 [[6-({[(3-fluoro(2-pyridyl))cyclobutyl]methyl}ami-no)pyridazin-3-yl]-N-(2-pyridylmethyl)carboxamide]
C (C=10-20 uM)	O=C(NCc1cccnc1)c1ccc(NCC2(c3ncccc3F)CCC2)nn1 [[6-({[(3-fluoro(2-pyridyl))cyclobutyl]methyl}ami-no)pyridazin-3-yl]-N-(3-pyridylmethyl)carboxamide]
D (D=>20 uM)	Cn1nccc1CNC(=O)c1ccc(NCC2(c3ncccc3F)CCC2)nn1 [[6-({[(3-fluoro(2-pyridyl))cyclobutyl]methyl}ami-no)pyridazin-3-yl]-N-[(1-methylpyrazol-5-yl)methyl]carboxamide]

The remaining lines, values behind:

Compound	Mean AC1.4
Nc1ccc(-c2ccc(NC[C@]3(c4ncccc4F)C[C@H](F)C3)nn2)cn1 [[6-(6-amino(3-pyridyl))pyridazin-3-yl]{[3-fluoro-1-(3-fluoro(2-pyridyl))cyclobutyl]methyl}amine]	A (A=<1 uM)
NC1CCc2nc(-c3ccc(NCC4(c5ncccc5F)CCC4)nn3)sc2C1 (stereo not shown) [[6-(6-amino(4,5,6,7-tetrahydrobenzothiazol-2-yl))pyridazin-3-yl]{[(3-fluoro(2-pyridyl))cyclobutyl]methyl}amine]	D (D=>20 uM)
CN(C)C(=O)c1ccc(NCC2(c3ncccc3F)CCC2)nn1 [[6-({[(3-fluoro(2-pyridyl))cyclobutyl]methyl}ami-no)pyridazin-3-yl]-N,N-dimethylcarboxamide]	D (D=>20 uM)
O=C(Nc1nncs1)c1ccc(NCC2(c3ncccc3F)CCC2)nn1 [[6-({[(3-fluoro(2-pyridyl))cyclobutyl]methyl}ami-no)pyridazin-3-yl]-N-(1,3,4-thiadiazol-2-yl)carboxamide]	B (B=1-10 uM)
O=C(Nc1ncco1)c1ccc(NCC2(c3ncccc3F)CCC2)nn1 [[6-({[(3-fluoro(2-pyridyl))cyclobutyl]methyl}ami-no)pyridazin-3-yl]-N-(1,3-oxazol-2-yl)carboxamide]	D (D=>20 uM)
O=C(Nc1nccs1)c1ccc(NCC2(c3ncccc3F)CCC2)nn1 [[6-({[(3-fluoro(2-pyridyl))cyclobutyl]methyl}ami-no)pyridazin-3-yl]-N-(1,3-thiazol-2-yl)carboxamide]	A (A=<1 uM)
O=C(NCc1nccs1)c1ccc(NCC2(c3ncccc3F)CCC2)nn1 [[6-({[(3-fluoro(2-pyridyl))cyclobutyl]methyl}ami-no)pyridazin-3-yl]-N-(1,3-thiazol-2-ylmethyl)carboxamide]	D (D=>20 uM)
O=C(NC1CCCNC1=O)c1ccc(NCC2(c3ncccc3F)CCC2)nn1 (stereo not shown) [[6-({[(3-fluoro(2-pyridyl))cyclobutyl]methyl}ami-no)pyridazin-3-yl]-N-(2-oxo(3-piperidyl))carboxamide]	D (D=>20 uM)
O=C(NCc1ccncc1)c1ccc(NCC2(c3ncccc3F)CCC2)nn1 [[6-({[(3-fluoro(2-pyridyl))cyclobutyl]methyl}ami-no)pyridazin-3-yl]-N-(4-pyridylmethyl)carboxamide]	D (D=>20 uM)
O=C(NCc1ccn[nH]1)c1ccc(NCC2(c3ncccc3F)CCC2)nn1 [[6-({[(3-fluoro(2-pyridyl))cyclobutyl]methyl}ami-no)pyridazin-3-yl]-N-(pyrazol-5-ylmethyl)carboxamide]	D (D=>20 uM)
Cn1ccc(CNC(=O)c2ccc(NCC3(c4ncccc4F)CCC3)nn2)n1 [[6-({[(3-fluoro(2-pyridyl))cyclobutyl]methyl}ami-no)pyridazin-3-yl]-N-[(1-methylpyrazol-3-yl)methyl]carboxamide]	D (D=>20 uM)
